The values that follow come from patent US8258100B2, “Ligand/lytic peptide methods of use” (Board of Supervisors of Louisiana State University and …, priority 1997, dated 2012).

For one data set, the target named is T1, LH receptors (Bos taurus, UniProt Q28005).
T1 construct: endogenous in cells; host or cells: primary bovine granulosa cells from pre-ovulatory follicles
The data set can be described thus: binding of bLH fragment to LH receptors on granulosa cells. The conditions noted are these: data not shown. Also noted: species or system bovine. The source says: (§1) Stimulation of target cell hormone production was not required for cell lysis.

In data set [1] the test system is LH receptors on the target granulosa cells. Description: steroid hormone production by granulosa cells. It is filed as cell-based, bovine. The conditions noted are these: data not shown.
From the text: as §1

The test system of data set [2] is Sprague-Dawley female rats. The data set can be described thus: Sprague-Dawley female rats, single intravenous treatment, necropsy at 48 or 96 hours, PAS stain of pituitary. The conditions noted are these: D-hecate 674 μg, GnRH 334 μg, GnRH-hecate 1 mg. It is filed as in vivo, rat. Here is the method: Eight sexually mature, Sprague-Dawley female rats were randomly assigned to one of eight treatments. Each group of rats received a single treatment intravenously, as described below. Rats were sacrificed and necropsied either 48 or 96 hours after treatment. The ovaries, uterus, pancreas, liver, spleen, lungs, heart, thyroid, and adrenal glands were fixed in 10% buffered formalin; sectioned; and stained with H&E (hematoxylin and eosin) stain; except that the pituitary glands were stained with PAS (periodic acid-Schiff) stain with no counter-stain. The treatments were selected so that each animal received an equimolar amount of the compound with which it was treated.

The next data set relates to Diatraea saccharalis. Description: fertility of sugar cane borer after inoculation of late-stage pupae. It is filed as in vivo. The conditions noted are these: 10 pupae inoculated, 1.0 μL of 1.35 mM peptide in saline. The protocol:
Late-stage Diatraea saccharalis (sugar cane borer) pupae were inoculated with 1.0 μL of saline solution containing 1.35 mM concentration of peptide as stated, or saline alone as control. The pupae were allowed to complete metamorphosis. […] Adult female moths were allowed to mate with treated males, and then lay eggs. The viability of the eggs was measured by counting the number hatching into larvae.

A further data set concerns the target T2, GnRH receptor (Rattus norvegicus, UniProt P30969).
T2 construct: specifically displaced radiolabelled monoiodinated-GnRH from rat pituitary membranes; from tissue; host or cells: rat pituitary membranes
T2 sequence (P30969 1-327): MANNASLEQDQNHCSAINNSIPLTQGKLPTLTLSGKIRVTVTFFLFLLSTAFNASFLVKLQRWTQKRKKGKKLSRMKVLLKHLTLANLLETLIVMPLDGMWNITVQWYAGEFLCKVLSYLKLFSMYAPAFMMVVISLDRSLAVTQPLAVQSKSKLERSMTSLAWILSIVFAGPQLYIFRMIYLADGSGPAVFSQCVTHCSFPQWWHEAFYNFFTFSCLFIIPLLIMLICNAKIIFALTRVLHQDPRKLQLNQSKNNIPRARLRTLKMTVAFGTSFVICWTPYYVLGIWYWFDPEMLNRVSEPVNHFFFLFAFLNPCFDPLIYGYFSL
Description: displacement of radiolabelled monoiodinated-GnRH from rat pituitary membranes. It is filed as binding. The source says: We also synthesized D-Lys^6GnRH (SEQ. ID NO. 13), so that hecate could be conjugated to the D-Lys^6, a position that could minimize interference with binding of the GnRH domain to the GnRH receptor. These synthetic peptides specifically displaced radiolabelled monoiodinated-GnRH from rat pituitary membranes.

The test system of data set [3] is sexually immature female rats. The data set can be described thus: immature female rats, intravenous GnRH-hecate dose series. The data set is classed as in vivo, rat. Conditions: 0.1 to 1.5 mg IV, 24 hours or 14 days. Here is the method:
Sexually immature (33 day old) female rats (randomly allocated into groups of three) were injected intravenously with saline or GnRH-hecate in saline as follows:
Animals were sacrificed at 24 hours or at 14 days after treatment. […] In the rats sacrificed fourteen days after treatment, 66% and 87% of the GnRH-receptor-containing neurons were abnormal in the rats that had received 1.0 and 1.5 mg of GnRH-hecate, respectively. Axonal degeneration in the 1.5 mg GnRH-hecate group was accompanied by over 90% reduction in median eminence staining for GnRH.

The test system of data set [4] is female New Zealand rabbits. Description: mature female New Zealand rabbits, intravenous GnRH-hecate, GnRH challenge day 46, necropsy day 47. It is filed as in vivo, rabbit. The conditions noted are these: 5 or 10 mg IV. Here is the method:
Seven sexually mature female New Zealand rabbits were injected intravenously with saline containing GnRH-hecate as follows:
Forty-six days later all rabbits were injected intramuscularly with 100 μg GnRH. Blood samples were collected at 0, 1, 4, and 24 hours, and LH and FSH levels in the blood samples were measured by radioimmunoassay. […] The rabbits were sacrificed the next day (day 47) for postmortem histological analysis. […] Ovarian and pituitary weights were reduced by the 10 mg GnRH-hecate treatment.

The subject of another data set is female rabbits. The data set can be described thus: mature female rabbits, intravenous GnRH-hecate, GnRH challenge day 6, sacrifice day 7. The data set is classed as in vivo, rabbit. The conditions noted are these: 10 mg IV. The protocol:
Nine sexually mature female rabbits were injected intravenously with saline containing 0 mg (n=4) (Treatment 46) or 10 mg GnRH-hecate (n=5) (Treatment 47). Rabbits were injected intramuscularly with GnRH on day 6 posttreatment. Blood samples were collected for radioimmunoassay of LH and FSH as described above, and the animals were sacrificed on day 7 post-treatment. […] The effects of GnRH-hecate on CNS morphology and immunocytochemical results were similar to those described above in Examples 34-45. Again, the effects were more pronounced on GnRH neurons than on staining of pituitary gonadotropes.

The subject of data set [5] is sexually immature female rats. The data set can be described thus: immature female rats, intravenous GnRH-hecate or GnRH then hecate, histology and immunocytochemistry at 14 days. Conditions: as E29. The data set is classed as in vivo, rat. The protocol: Another set of experiments was performed to study the in vivo effects of the GnRH-hecate conjugate on female rats and rabbits. The ovaries, uterus, oviducts, adrenals, spleen, thyroids, pancreas, liver, lungs, and heart were processed for histological analysis. […] The immunocytochemical staining procedures we used followed generally the procedures of M. Rahmanian et al., “Histological and immunocytochemical characterization of pituitary cell types in ponies,” Proc. 13th Soc. Equine Nutrition & Phys. Symp., pp. 348-349 (1993); M. Rahmanian et al., “Immunocytochemical localization of luteinizing hormone and follicle-stimulating hormone in the equine pituitary,” J. Anim. Sci., vol. 76, pp. 839-846 (1998); M. Rahmanian et al., “Immunocytochemical localization of prolactin and growth hormone in the equine pituitary,” Animal Sci., vol. 75, pp. 3010-3018 (1997); and P. Melrose et al., “Comparative topography of the immunoreactive alpha-melanocyte-stimulating hormone neuronal system in the brains of horses and rats,” Brain Beh. & Evol., vol. 32, pp. 226-235 (1988).
Brains were serially sectioned on a Vibrotome from the level of the diagonal band of Broca to the mammillary body. […]

Another data set relates to LNCaP FGC cells. Description: in vitro lysis of human prostate cancer cells, Trypan blue exclusion. It is filed as cell-based. The text has this: (§2) LNCaP FGC and DU145 human prostate cancer cell lines were purchased from the American Type Culture Collection (ATCC, Rockville Md.), ATCC accession numbers CRL 1740 and HTB-81, respectively. The LNCaP FGC adenocarcinoma cell line was originally obtained from a person. LNCaP FGC cells are sensitive to dihydrotestosterone and to estrogens (A+). The DU145 carcinoma was originally isolated from the brain of a person with metastatic carcinoma of the prostate; this cell line is not sensitive to steroid hormones (A−).
(§3) Cells were detached from culture flasks, and 1000 cells/well were transferred to 24 well culture plates. The cells were incubated for 24 hours with 10% calf serum. Cells were subsequently incubated without serum for 48 hours. Cells were then incubated for 22 hours with one of the following treatments:
(§4) Trypan blue exclusion was used to assess viability of the cells after treatment. […] However, treatment with a lytic peptide alone may not be selective in vivo unless specific cell types are separately stimulated, for example by hormones controlling their activity.

The next data set has as its system DU145 cells. Described as above. The conditions noted are these: 22 hours; GnRH-hecate 50 μM; free hecate 30 μM; hecate-bLH 90 or 60 μM. It is filed as cell-based.
From the text: as §2, §3, §4

Another data set deals with bovine granulosa cells. Description: in vitro lysis of bovine granulosa cells. Conditions: 1 μM. It is filed as cell-based. The text has this:
We also studied in vitro lysis of bovine granulosa cells with GnRH-hecate conjugate and with hecate-bLH conjugate. Granulosa cells were isolated from bovine pre-ovulatory follicles. (Granulosa cells are hormonally active cells with numerous LH receptors.) Our experiments with granulosa cells were otherwise generally similar to those described above for Examples 24-31.

Data set [6] has as its system bovine small luteal cells. Description: in vitro lysis of bovine small luteal cells (Trypan Blue exclusion, lactic dehydrogenase release). It is filed as cell-based, cattle. The conditions noted are these: 22 hr. The protocol: We studied in vitro lysis of bovine luteal cells with GnRH-hecate conjugate and with hecate-bLH conjugate (SEQ. ID NO. 12). (The bLH component of the conjugate is a 15-mer fragment of the beta chain of luteinizing hormone, SEQ. ID NO. 11). Small luteal cells were collected from cattle corpora lutea post-slaughter.
Small luteal cells in culture were incubated with one of the following treatments for 22 hours, and were then examined for viability using Trypan Blue exclusion and release of lactic dehydrogenase.

Where a SMILES comes first, the peptide text is derived from it. Where no end group is shown, it is not given here.

T1 sequence (Q28005 27-701): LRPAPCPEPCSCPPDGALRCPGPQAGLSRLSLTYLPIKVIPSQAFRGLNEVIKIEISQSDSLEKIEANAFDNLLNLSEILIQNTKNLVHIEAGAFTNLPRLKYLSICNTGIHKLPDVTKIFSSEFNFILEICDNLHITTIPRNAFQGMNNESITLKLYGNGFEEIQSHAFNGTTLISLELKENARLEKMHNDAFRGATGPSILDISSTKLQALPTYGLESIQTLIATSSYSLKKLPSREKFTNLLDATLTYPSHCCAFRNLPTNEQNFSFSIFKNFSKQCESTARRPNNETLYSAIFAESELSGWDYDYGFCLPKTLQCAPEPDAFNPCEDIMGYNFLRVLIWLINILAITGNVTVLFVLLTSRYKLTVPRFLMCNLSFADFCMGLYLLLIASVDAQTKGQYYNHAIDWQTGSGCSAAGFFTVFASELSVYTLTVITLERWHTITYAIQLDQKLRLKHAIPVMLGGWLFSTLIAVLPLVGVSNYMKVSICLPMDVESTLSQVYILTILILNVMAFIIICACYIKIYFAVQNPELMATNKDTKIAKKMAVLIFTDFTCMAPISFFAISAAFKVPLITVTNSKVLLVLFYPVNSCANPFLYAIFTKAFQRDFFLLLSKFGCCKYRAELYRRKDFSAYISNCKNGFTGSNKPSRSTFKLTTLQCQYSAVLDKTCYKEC

For “15-mer fragment of the bLH subunit: 15-mer fragment of the beta chain of luteinizing hormone, receptor binding site (SEQ. ID NO. 11) (SYAVALSCQCALCRR)”, the “binding to LH receptors on granulosa cells” value in the data set with LH receptors is “specifically bound to LH receptors”. In addition, in data set [1], the “production of steroid hormones” value is recorded as “did not initiate the production of steroid hormones”.
Regarding `CC(C)C[C@@H](NC(=O)[C@@H](C)NC(=O)[C@@H](CCCCN)NC(=O)[C@@H](CCCCN)NC(=O)[C@@H](CC(C)C)NC(=O)[C@@H](C)NC(=O)[C@@H](CCCCN)NC(=O)[C@@H](CCCCN)NC(=O)[C@@H](CC(C)C)NC(=O)[C@@H](CCCCN)NC(=O)[C@@H](CCCCN)NC(=O)[C@@H](CC(C)C)NC(=O)[C@@H](C)NC(=O)[C@@H](CCCCN)NC(=O)[C@@H](CCCCN)NC(=O)[C@@H](CC(C)C)NC(=O)[C@@H](C)NC(=O)[C@@H](CCCCN)NC(=O)[C@@H](CC(C)C)NC(=O)[C@@H](C)NC(=O)[C@@H](CC(C)C)NC(=O)[C@@H](C)NC(=O)[C@H](N)Cc1ccccc1)C(=O)O` [D-hecate, reference compound] (HELM PEPTIDE1{[dF].[dA].[dL].[dA].[dL].[dK].[dA].[dL].[dK].[dK].[dA].[dL].[dK].[dK].[dL].[dK].[dK].[dA].[dL].[dK].[dK].[dA].[dL]}$$$$V2.0), the “gross lesions in the organs” value in data set [2] is given as “No gross lesions”. Besides, the “pupae completing metamorphosis into adult moths” value with Diatraea saccharalis is given as “Six”.
As for “D-Lys^6GnRH-hecate: hecate conjugated to the D-Lys^6 of D-Lys^6GnRH”, in the data set with GnRH receptor (rat pituitary membranes), the “displacement of radiolabelled monoiodinated-GnRH, as measured by cpm” value is reported as “comparable to (and actually slightly greater than) displacement by native mammalian GnRH”.
For the compound “D-Lys^6GnRH: GnRH analog with D-Lys at position 6 (SEQ. ID NO. 13)”, in the data set with GnRH receptor (molar basis over a 1000-fold concentration range (n=6)), the “displacement of radiolabelled peptide relative to equimolar native GnRH” value is listed as 187%±8%.
For the compound “QHWSYGLRPGFALALKALKKALKKLKKALKKAL [GnRH-hecate]”, in data set [2], the “gross lesions in the organs” value is “No gross lesions were noted in the organs of any of the four animals, other than the pituitary”. In data set [3], the “VP staining in the CNS” value is given as “not altered”. In addition, the “hippocampus and other areas of the brain containing high concentrations of GnRH” value in data set [4] is listed as “not discernibly affected”. Further, the “pupae completing metamorphosis into adult moths” value in the data set on Diatraea saccharalis was “Eight”. Further, in the data set on female rabbits, the “effects on peripheral tissues or pituitary weight” value was “No effects were noticed”. Further, in [5], the “C1 and C3 fields of the hippocampus” value is reported as “histological damage to cells”; the “pathological changes in other tissues” value was “No pathological changes were noted in any other tissues”.
As for “hecate-bLH: conjugate of hecate and a 15-mer fragment of the beta chain of luteinizing hormone (SEQ. ID NO. 12) (FALALKALKKALKKLKKALKKALSYAVALSCQCALCRR)”, the “killing of cells (viability)” value with LNCaP FGC cells (22 hours, GnRH-hecate 50 μM, hecate-bLH 90 or 60 μM) is given as “had little effect”. For the same compound, the “sensitivity of cells to conjugate” value in the data set with LNCaP FGC cells (FSH pre-treatment, followed by 90 μM hecate-bLH) is given as “more sensitive to the hecate-bLH conjugate than those that were not pre-treated”. For the same compound, the “killing of cells (viability)” value in the data set with DU145 cells is listed as “killed almost all DU145 cells”. Also, in the data set on bovine granulosa cells, the “levels of lactic dehydrogenase released” value was “significantly higher than the levels of enzyme released following treatment with 1 μM hecate alone” and the “number of target cells killed relative to hecate alone” value is reported as “about twice the number of target cells as did hecate alone”. Besides, in data set [6] (10, 5, 1 μM), the “number of cells killed relative to hecate alone at the same concentrations” value is reported as “approximately twice the number of cells as were killed by hecate alone”. In addition, the “lactic dehydrogenase activity (cell killing)” value in data set [6] (versus hecate alone) is “killed a significantly greater number of cells than did hecate alone”. Besides, the “cell death of small luteal cells versus hecate alone” value in data set [6] (all three doses (10, 5, 1 μM)) was “significant increases in cell death as compared to treatment with hecate alone”.
